In PubChem BioAssay AID1963964 (Molecular Pharmacology Branch, DTP, NCI, 2024):
Values belong to the molecule of their own block, whether it stands above or below them.

Test system: 997726-040-R-J2-PDC tumor spheroids, viability
Assay: Anticancer human tumor 997726-040-R-J2-PDC patient-derived squamous cell lung carcinoma cell line growth inhibition [PI3K]
Conditions: spheroids with HUVEC and MSC; for IC50: curve of first compound; for viability, T/C: stronger effect = lower value
Source text: Combinatorial screen of targeted agents with the PI3K inhibitors inavolisib, alpelisib, duvelisib, and copanlisib in multi-cell type tumor spheroids
A high-throughput screen of multi-cell type tumor spheroids was designed to identify active combinations of targeted small molecules and PI3K pathway inhibitors. Complex spheroids include a stromal component modeled by human endothelial cells (HUVEC) and fibroblasts modeled by human mesenchymal stem cells (MSCs). The concentration ranges selected for each drug and investigational agent were based upon clinically achievable concentrations if the clinical Cmax of the agent was known.
Compounds. The drugs and investigational agents: inavolisib (NSC800729), alpelisib (NSC765974), duvelisib (NSC772469), copanlisib (NSC816437), ipatasertib (NSC767898), afuresertib (NSC778305), talazoparib (NSC767125), sapanisertib (NSC764658), selumetinib (NSC741078), tovorafenib (DAY101, NSC766906), vemurafenib (NSC761431), ravoxertinib (NSC781343), sotorasib (NSC818433), MRTX1133 (NSC 836407), abemaciclib (NSC 768073), palbociclib (NSC758247), venetoclax (NSC 766270), SY5609 (NSC837396), enzalutamide (NSC755605), and darolutamide (NSC825331), were obtained from the National Cancer Institute (NCI) Developmental Therapeutics Program Chemical Repository. The FDA-approved anticancer drug set is available from the NCI Developmental Therapeutics Program. […] The stock solutions were prepared in dimethyl sulfoxide (DMSO, Sigma-Aldrich, St. Louis, MO, cat. D2650) at 800-fold the tested concentration and stored at -70 degrees C prior to their use. All drugs and investigational agents were tested over a range starting from a high concentration at or near the clinical Cmax and decreasing in half-log increments. If the clinical Cmax for an agent had not been determined, the highest concentration tested was 10 microM.
Cell Culture. All cells were maintained in an incubator at 37 degrees C and 5% CO2 with 95% humidity. The PDC lines were cultured according to standard operating procedures established by the NCI PDMR (https://pdmr.cancer.gov/sops/default.htm). All PDCs were thawed and cultured in Matrigel-coated flasks prepared with a working solution of 1X Ham's F-12 nutrient mix, without supplementation (Invitrogen, Waltham, MA, cat. 11765054), 100 U/mL penicillin-streptomycin (Invitrogen, cat. 15140122), and 2.5% Matrigel (Corning Inc., Corning, NY, cat. 354248) for the first three passages. The 354836-022-R-J1-PDC, 475296-252-R-J1-PDC, and 997726-040-R-J2-PDC lines were cultured in 6A media, which includes advanced DMEM/F-12 (Thermo Fisher Scientific, cat. 12634028), 10 mM HEPES (Thermo Fisher Scientific, cat. 15630080), 1X GlutaMAX supplement (Thermo Fisher Scientific, cat. 35050061), 0.1 mg/mL primocin (InvivoGen, San Diego, CA, cat. ant-pm-2), 10% defined fetal bovine serum, heat inactivated (HyClone Laboratories Inc., Logan, UT, cat. SH30070.03HI), 50% L-WRN conditioned media (ATCC, cat. CRL-3276), 1.25 mM N-Acetyl-L-cysteine (Sigma-Aldrich, cat. A9165), 10 mM nicotinamide (Sigma-Aldrich, cat. N0636), 1X B-27 supplement (Thermo Fisher Scientific, cat. 17504044), 1X N-2 supplement (Thermo Fisher Scientific, cat. 17502048), and 10 microM Y-27632 dihydrochloride (Tocris Bioscience, Bristol, United Kingdom, cat. 1254). The 624824-186-R-J2-PDC line was cultured in 6C/Colon 1B media, which includes all 6A media components plus 50 ng/mL human EGF recombinant protein (Thermo Fisher Scientific, cat. PHG0311). […]

[1] = second compound 0.00316 µM, first compound 0.0316 µM
[2] = second compound 0.00316 µM, first compound 0.1 µM
[3] = second compound 0.00316 µM, first compound 0.316 µM
[4] = second compound 0.00316 µM, first compound 1 µM
[5] = second compound 0.00316 µM, first compound 3.16 µM
[6] = second compound 0.00316 µM, first compound 10 µM
[7] = second compound 0.01 µM, first compound 0.0316 µM
[8] = second compound 0.01 µM, first compound 0.1 µM
[9] = second compound 0.01 µM, first compound 0.316 µM
[10] = second compound 0.01 µM, first compound 1 µM
[11] = second compound 0.01 µM, first compound 3.16 µM
[12] = second compound 0.01 µM, first compound 10 µM
[13] = second compound 0.0316 µM, first compound 0.0316 µM
[14] = second compound 0.0316 µM, first compound 0.1 µM
[15] = second compound 0.0316 µM, first compound 0.316 µM
[16] = second compound 0.0316 µM, first compound 1 µM
[17] = second compound 0.0316 µM, first compound 3.16 µM
[18] = second compound 0.0316 µM, first compound 10 µM
[19] = second compound 0.1 µM, first compound 0.0316 µM
[20] = second compound 0.1 µM, first compound 0.1 µM
[21] = second compound 0.1 µM, first compound 0.316 µM
[22] = second compound 0.1 µM, first compound 1 µM
[23] = second compound 0.1 µM, first compound 3.16 µM
[24] = second compound 0.1 µM, first compound 10 µM
[25] = second compound 0.316 µM, first compound 0.0316 µM
[26] = second compound 0.316 µM, first compound 0.1 µM
[27] = second compound 0.316 µM, first compound 0.316 µM
[28] = second compound 0.316 µM, first compound 1 µM
[29] = second compound 0.316 µM, first compound 3.16 µM
[30] = second compound 0.316 µM, first compound 10 µM
[31] = second compound 1 µM, first compound 0.0316 µM
[32] = second compound 1 µM, first compound 0.1 µM
[33] = second compound 1 µM, first compound 0.316 µM
[34] = second compound 1 µM, first compound 1 µM
[35] = second compound 1 µM, first compound 3.16 µM
[36] = second compound 1 µM, first compound 10 µM
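Also: spheroids exposed to compounds for seven days before readout.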

IC50 (second compound 0.00316 µM): 9.17 µM
IC50 (second compound 0.01 µM): 9.25 µM
IC50 (second compound 0.0316 µM): 5.87 µM
IC50 (second compound 0.1 µM): < 0.0316 µM
IC50 (second compound 0.316 µM): < 0.0316 µM
IC50 (second compound 1 µM): < 0.0316 µM
Compound: CC1(C)CCC(CN2CCN(c3ccc(C(=O)NS(=O)(=O)c4ccc(NCC5CCOCC5)c([N+](=O)[O-])c4)c(Oc4cnc5[nH]ccc5c4)c3)CC2)=C(c2ccc(Cl)cc2)C1 + CC(Nc1ccc2c(c1)OCCn1cc(N3C(=O)OCC3C(F)F)nc1-2)C(N)=O
viability, T/C [1]: 74.8%
viability, T/C [2]: 82.8%
viability, T/C [3]: 92.2%
viability, T/C [4]: 83.6%
viability, T/C [5]: 73.1%
viability, T/C [6]: 48.1%
viability, T/C [7]: 64.9%
viability, T/C [8]: 86.6%
viability, T/C [9]: 74.2%
viability, T/C [10]: 81.6%
viability, T/C [11]: 70%
viability, T/C [12]: 48.1%
viability, T/C [13]: 60.8%
viability, T/C [14]: 63.8%
viability, T/C [15]: 70.7%
viability, T/C [16]: 55%
viability, T/C [17]: 62.9%
viability, T/C [18]: 39.5%
viability, T/C [19]: 42.5%
viability, T/C [20]: 42.1%
viability, T/C [21]: 43.5%
viability, T/C [22]: 37.2%
viability, T/C [23]: 39.8%
viability, T/C [24]: 28.3%
viability, T/C [25]: 30.7%
viability, T/C [26]: 33.3%
viability, T/C [27]: 32.9%
viability, T/C [28]: 29.9%
viability, T/C [29]: 24.1%
viability, T/C [30]: 15.9%
viability, T/C [31]: 27.9%
viability, T/C [32]: 21.5%
viability, T/C [33]: 24.5%
viability, T/C [34]: 27.7%
viability, T/C [35]: 24.8%
viability, T/C [36]: 12.3%

IC50 (second compound 0.00316 µM): > 10 µM
IC50 (second compound 0.01 µM): > 10 µM
IC50 (second compound 0.0316 µM): 6.26 µM
IC50 (second compound 0.1 µM): 4.17 µM
IC50 (second compound 0.316 µM): < 0.0316 µM
IC50 (second compound 1 µM): < 0.0316 µM
Compound: C[C@@H](NC(=O)c1ncnc(N)c1Cl)c1ncc(C(=O)Nc2cc(C(F)(F)F)c(Cl)cn2)s1 + CC(Nc1ccc2c(c1)OCCn1cc(N3C(=O)OCC3C(F)F)nc1-2)C(N)=O
viability, T/C [1]: 92.1%
viability, T/C [2]: 122%
viability, T/C [3]: 104%
viability, T/C [4]: 100%
viability, T/C [5]: 85.3%
viability, T/C [6]: 60.4%
viability, T/C [7]: 89.5%
viability, T/C [8]: 95.2%
viability, T/C [9]: 93.5%
viability, T/C [10]: 93.7%
viability, T/C [11]: 80.7%
viability, T/C [12]: 58.3%
viability, T/C [13]: 67%
viability, T/C [14]: 80.4%
viability, T/C [15]: 66.1%
viability, T/C [16]: 61.9%
viability, T/C [17]: 57.9%
viability, T/C [18]: 45.3%
viability, T/C [19]: 55%
viability, T/C [20]: 53.7%
viability, T/C [21]: 58.3%
viability, T/C [22]: 58.3%
viability, T/C [23]: 51.8%
viability, T/C [24]: 40.5%
viability, T/C [25]: 42.3%
viability, T/C [26]: 39.3%
viability, T/C [27]: 37.1%
viability, T/C [28]: 41%
viability, T/C [29]: 39.2%
viability, T/C [30]: 30.7%
viability, T/C [31]: 34%
viability, T/C [32]: 33.8%
viability, T/C [33]: 33.6%
viability, T/C [34]: 35.5%
viability, T/C [35]: 33.6%
viability, T/C [36]: 24.1%
